Data reported in ChEMBL document CHEMBL1135853, “Structure-activity relationships of the peptide deformylase inhibitor BB-3497: modification of the metal binding group” (Bioorg Med Chem Lett, 2002).
Values after ≈ are worked out from the molar mass of the structure shown.

Legend:
[1] = system: Escherichia coli; assay: Compound was evaluated for antibacterial activity against Escherichia coli; type: functional
[2] = system: Staphylococcus capitis; assay: Compound was evaluated for antibacterial activity against Staphylococcus capitis; type: functional
[3] = biological target: Peptide deformylase (Escherichia coli) (UniProt P0A6K3); assay: Compound was evaluated for inhibition of peptide deformylase, PDF.Ni of Escherichia coli at concentration of 1 uM
Peptide deformylase (Escherichia coli), sequence (P0A6K3 whole entry, looked up): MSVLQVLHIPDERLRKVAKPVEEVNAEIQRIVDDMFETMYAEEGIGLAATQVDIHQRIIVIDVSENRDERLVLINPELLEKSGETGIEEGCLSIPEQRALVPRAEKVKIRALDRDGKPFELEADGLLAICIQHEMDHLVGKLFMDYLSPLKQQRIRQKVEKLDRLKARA

[4] = system: Escherichia coli; assay: Compound was evaluated for antibacterial activity against Escherichia coli in the range of 75-100 uM; Exerted a moderate antibacterial effect; type: functional

MIC [1] | MIC [2] | inhibition [3] | MIC [4] | Structure (SMILES)
> 200 µM | > 200 µM |  |  | CCCCC(CC(=N)NO)C(=O)N[C@H](C(=O)N(C)C)C(C)(C)C (stereo partly specified)
> 200 µM | > 200 µM | 20% |  | CCCC[C@H](OC(=O)NO)C(=O)N[C@H](C(=O)N(C)C)C(C)(C)C
> 200 µM | > 200 µM | 60% |  | CCCC[C@H](CN(O)C(C)=O)C(=O)N[C@H](C(=O)N(C)C)C(C)(C)C
> 200 µM | > 200 µM |  |  | CCCC[C@H](CC(=O)NN)C(=O)N[C@H](C(=O)N(C)C)C(C)(C)C
 |  |  | 75 µM (≈ 30.8 µg/mL) | CCCC[C@H](CS)C(=O)N[C@@H](CCCCN)C(=O)Nc1ccc([N+](=O)[O-])cc1
> 200 µM | > 200 µM |  |  | CCCC[C@H](CNC=O)C(=O)N[C@H](C(=O)N(C)C)C(C)(C)C
25 µM (≈ 8.24 µg/mL) | 100 µM (≈ 32.9 µg/mL) |  |  | CCCC[C@H](CC(=O)NO)C(=O)N[C@H](C(=O)N(C)C)C(C)(C)C
> 200 µM | > 200 µM |  |  | CCCCC(CP(=O)(O)O)C(=O)N[C@H](C(=O)N(C)C)C(C)(C)C (stereo partly specified)
> 200 µM | > 200 µM |  |  | CCCC[C@H](NCC(=O)O)C(=O)N[C@H](C(=O)N(C)C)C(C)(C)C
> 200 µM | > 200 µM | 40% |  | CCCC[C@H](NC(=O)NO)C(=O)N[C@H](C(=O)N(C)C)C(C)(C)C
> 200 µM | > 200 µM |  |  | CCCC[C@H](CC(=O)O)C(=O)N[C@H](C(=O)N(C)C)C(C)(C)C
> 200 µM | > 200 µM | 10% |  | CCCC[C@H](CS)C(=O)N[C@H](C(=O)N(C)C)C(C)(C)C
> 200 µM | > 200 µM |  |  | CCCC[C@H](CN(O)C(N)=O)C(=O)N[C@H](C(=O)N(C)C)C(C)(C)C
> 200 µM | > 200 µM |  |  | CCCCC(C[PH](=O)O)C(=O)N[C@H](C(=O)N(C)C)C(C)(C)C (stereo partly specified)
